From patent US7951956B2, “Benzoimidazole compound capable of inhibiting prostaglandin D synthetase” (Taiho Pharmaceuticals Co., Ltd., priority 2005, dated 2011)

Experiments:
[1] = tested on: antigen-induced nasal congestion; assay: Ameliorating activity for antigen-induced nasal congestion in guinea pig (Experiment 3); assay type: in vivo, Std:Hartley guinea pigs; conditions: for AUC3-7 hr (nRaw increase %): 3 to 7 hours after induction
Method: A physiological saline solution containing 1 mg/mL of ovalbumin was subcutaneously injected into the backs of 5-week-old male Std:Hartley guinea pigs in an amount of 1 mL/body for active sensitization (primary sensitization). One week and two weeks after primary sensitization, 20 μL each of a physiological saline solution containing 10 mg/mL of ovalbumin was instilled into the nasal cavities using a micropipette (sensitization by nasal administration). Three weeks after primary sensitization, 10 μL each of a physiological saline solution containing 20 mg/mL of ovalbumin was instilled into the nasal cavities using a micropipette to induce a rhinitis reaction.
Before, and 10 minutes and 2, 3, 4, 5, 6 and 7 hours after nasal instillation of ovalbumin, the nasal airway resistance per 100 breaths was determined using a comprehensive respiratory function analysis system (“Pulmos-I”, a product of M.I.P.S. Co., Ltd.), and the average at each measurement time was calculated and expressed as nRaw. The increase % of nRaw was calculated according to the following formula. Increase(%)of nRaw at each measurement time=(nRaw at each measurement time−nRaw before induction)÷nRaw before induction×100
Nasal congestion was evaluated by measuring the area under the curve of nRaw increase % during the period of 3 to 7 hours after induction (AUC3-7 hr). “I3-7 hr” refers to the increase of nRaw during the period of 3 to 7 hours after induction. AUC3-7hr=½(I3hr+2×I4hr+2×I5hr+2×I6hr+I7hr)
To confirm the effects on nasal congestion by inhibition of PGD2 production, Compound 15 was selected as a representative compound and orally administered once a day for 15 consecutive days from the day of nasal sensitization performed 1 week after primary sensitization to the day of induction performed 3 weeks after primary sensitization. On the nasal sensitization days (1 week and 2 weeks after primary sensitization) and the induction day, compound 15 was orally administered 1 hour before intranasal instillation of ovalbumin.

[2] = biological target: human hematopoietic synthase (Homo sapiens, UniProt O60760); assay: Hematopoietic synthase inhibitory activity (Experiment 1); assay type: biochemical; conditions: [14C] prostaglandin H2 10 μM, preincubated at 25° C. for 5 minutes, 1 minute reaction; read-out: Concentration of Pharmaceutical Compound Required to Inhibit 50% of Hematopoietic Synthase
Chain of human hematopoietic synthase (O60760 whole entry): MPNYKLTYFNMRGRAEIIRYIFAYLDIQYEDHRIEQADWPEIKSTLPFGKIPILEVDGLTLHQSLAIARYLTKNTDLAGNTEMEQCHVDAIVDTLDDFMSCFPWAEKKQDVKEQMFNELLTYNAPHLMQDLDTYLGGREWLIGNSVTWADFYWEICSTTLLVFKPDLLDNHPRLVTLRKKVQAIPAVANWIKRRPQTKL
Method: Experiment 1 was carried out according to the method of Urade, Y. et al. (J. Biol. Chem. 262, 3820-3825, (1987)). More specifically, the reaction mixture (49 μL); 100 mM Tris-HCl (pH 8.0), 1 mM reduced glutathione, 0.1 mg/mL γ-globulin, and human hematopoietic synthase (quantum sufficient), and a test compound (final concentration: 0.01-100 μM) were preincubated at 25° C. for 5 minutes. In place of the test compound, a DMSO solution (final concentration: 1%) was used in the solvent control group (Control Group). Subsequently, 1 μL of [^14C] prostaglandin H2 (final concentration: 10 μM) was added to start the reaction. One minute after the start of the reaction, 250 μL of a reaction stopper solution (diethylether/methanol/1M citric acid (30/4/1) cooled to −20° C. was added to stop the reaction.
Thereafter, 50 μL of the upper layer portion (organic solvent phase) was applied to a TLC plate and developed at −20° C. for 45 minutes (developer: diethylether/methanol/acetic acid (capacity ratio=90/2/1)). After drying the plate, the plate was exposed to an imaging plate for 1 to 24 hours, and the radioactivity corresponding to prostaglandin D2 was analyzed using an image analyzer (product of FUJIFILM Corporation). The area (%) occupied by the prostaglandin D2 band per lane was calculated, and the concentration of the test compound required to inhibit 50% of the hematopoietic synthase (IC50 value) was calculated by comparison with the Control group in each experiment.

[3] = tested on: PGD2 amount in bronchoalveolar lavage fluid; assay: Inhibitory activity for prostaglandin D2 production into bronchoalveolar lavage fluid in rats (Experiment 2); assay type: in vivo, Brawn Norway rats; conditions: 10 mg/kg orally two hours before antigen inhalation; lavage fluid one hour after ovalbumin inhalation; sensitized rats
Method: A physiological saline solution containing 1 mg of ovalbumin and 4 mg of alum was subcutaneously injected into the backs of 7-week-old male Brawn Norway rats in an amount of 1 mL/body, and 0.06 mg of killed pertussis bacteria were intraperitoneally injected into each rat to perform active sensitization. Fourteen days after sensitization, the rats inhaled 2% ovalbumin for 10 minutes. One hour after inhalation, bronchoalveolar lavage fluid was collected. The amount of PGD2 in the bronchoalveolar lavage fluid was determined using an EIA kit. Two hours before antigen inhalation, a test compound (10 mg/kg) was orally administered.

Compound	IC50 [2] [nM]	melting point [°C]	Inhibition (%) of the PGD2 Amount in Bronchoalveolar Lavage Fluid [3] [%]	other results
O=C(O)CCn1c2c(c3ccccc31)C[C@H](NS(=O)(=O)c1ccc(F)cc1)CC2 [Ramatroban, reference compound]	–	–	–	Inhibition (%) of nasal congestion (AUC3-7 hr) ([1]; 30 mg/kg orally): 70.9%; AUC3-7 hr (nRaw increase %) ([1]; 30 mg/kg orally): 183.4 ± 29.3^$$ % · hr
Cc1oc(C(=O)N2CCCC2)c(C)c1-c1nc2cc(C(=O)c3ccccc3)ccc2[nH]1 [Compound 3, (4-(5-Benzoylbenzimidazol-2-yl)-3,5-dimethyl-2-furanylcarbonyl)pyrrolidine]	178	–	36	–
O=C(Nc1cccc2c(=O)cc(-c3nnn[nH]3)oc12)c1ccc(OCCCCc2ccccc2)cc1 [Pranlukast, reference compound]	–	–	–	Inhibition (%) of nasal congestion (AUC3-7 hr) ([1]; 30 mg/kg orally): 81.5%; AUC3-7 hr (nRaw increase %) ([1]; 30 mg/kg orally): 126.3 ± 41.7^$$ % · hr
Cc1c[nH]c(C)c1-c1nc2cc(C(=O)c3ccccc3)ccc2[nH]1 [Compound 7, 2-(2,4-Dimethyl-pyrrol-3-yl)-5-benzoylbenzimidazole]	588	207 to 214	–	–
Cc1[nH]c(C#N)c(C)c1-c1nc2cc(C(=O)c3ccccc3)ccc2[nH]1 [Compound 13, 2-(2-Cyano-3,5-dimethyl-pyrrol-4-yl)-5-benzoylbenzimidazole]	540	159 to 163	48	–

More lines, main results first:

IC50 [2] [nM]	melting point [°C]	Compound	Inhibition (%) of the PGD2 Amount in Bronchoalveolar Lavage Fluid [3] [%]	other results
63	–	Cc1[nH]c(C(=O)N2CCC=N2)c(C)c1-c1nc2cc(C(=O)c3ccccc3)ccc2[nH]1 [Compound 42, ((4-(5-Benzoylbenzimidazol-2-yl)-3,5-dimethylpyrrol-2-yl)-carbonyl)pyrazoline]	88	–
592	–	Cc1[nH]c(C(=O)N2CCOCC2)c(C)c1-c1nc2cc(C(=O)c3ccccc3)ccc2[nH]1 [Compound 40, ((4-(5-benzoylbenzimidazol-2-yl)-3,5-dimethylpyrrol-2-yl)-carbonyl)morpholine]	65	–
256	127 to 132	CON(C)C(=O)c1[nH]c(C)c(-c2nc3cc(C(=O)c4ccccc4)ccc3[nH]2)c1C [Compound 15, (N-Methoxy-N-methyl)-4-(5-benzoylbenzimidazol-2-yl)-3,5-dimethylpyrrole-2-carboxamide]	>72	Inhibition (%) of nasal congestion (AUC3-7 hr) ([1]; 3 mg/kg orally): 60.8%; AUC3-7 hr (nRaw increase %) ([1]; 3 mg/kg orally): 273.9 ± 69.1 % · hr; Inhibition (%) of nasal congestion (AUC3-7 hr) ([1]; 10 mg/kg orally): 76.5%; AUC3-7 hr (nRaw increase %) ([1]; 10 mg/kg orally): 153.5 ± 27.1 % · hr; Inhibition (%) of nasal congestion (AUC3-7 hr) ([1]; 30 mg/kg orally): 92.8%; AUC3-7 hr (nRaw increase %) ([1]; 30 mg/kg orally): 65.7 ± 28.9 % · hr
304	256 to 258	Cc1[nH]c(C(=O)NCCC(=O)O)c(C)c1-c1nc2cc(C(=O)c3ccccc3)ccc2[nH]1 [Compound 21, N-(2-Carboxyethyl)-4-(5-benzoylbenzimidazol-2-yl)-3,5-dimethylpyrrole-2-carboxamide]	–	–
614	251 to 254	Cc1[nH]c(C(=O)N2CCCC2)c(C)c1-c1nc2cc(Oc3ccccc3)ccc2[nH]1 [Compound 70, ((4-(5-Phenoxybenzimidazole-2-yl)-3,5-dimethylpyrrol-2-yl)-2-carbonyl)pyrrolidine]	–	–
3080	185 to 187	CCOC(=O)c1c(C)[nH]c(-c2nc3cc(C(=O)c4ccccc4)ccc3[nH]2)c1C [Compound 53, 5-(5-Benzoylbenzimidazole-2-yl)-2,4-dimethylpyrrole-3-carboxylic acid ethyl ester]	–	–
